# Source: ChEMBL document CHEMBL1123590, “Dopamine agonists related to 3-allyl-6-chloro-2,3,4,5-tetrahydro-1-(4-hydroxyphenyl)-1H-3-benzaz epi ne-7, 8-diol. 6-Position modifications” (J Med Chem, 1987)
# Target: D(1A) dopamine receptor (Rattus norvegicus, UniProt P18901)
# Test: Dopamine agonist (Dopamine receptor D1) activity was measured as increase in cAMP formation relative to maximum increase in dopamine-sensitive adenylate cyclase
# Type: functional
# Settings: not given
# Sequence of D(1A) dopamine receptor (P18901 whole entry): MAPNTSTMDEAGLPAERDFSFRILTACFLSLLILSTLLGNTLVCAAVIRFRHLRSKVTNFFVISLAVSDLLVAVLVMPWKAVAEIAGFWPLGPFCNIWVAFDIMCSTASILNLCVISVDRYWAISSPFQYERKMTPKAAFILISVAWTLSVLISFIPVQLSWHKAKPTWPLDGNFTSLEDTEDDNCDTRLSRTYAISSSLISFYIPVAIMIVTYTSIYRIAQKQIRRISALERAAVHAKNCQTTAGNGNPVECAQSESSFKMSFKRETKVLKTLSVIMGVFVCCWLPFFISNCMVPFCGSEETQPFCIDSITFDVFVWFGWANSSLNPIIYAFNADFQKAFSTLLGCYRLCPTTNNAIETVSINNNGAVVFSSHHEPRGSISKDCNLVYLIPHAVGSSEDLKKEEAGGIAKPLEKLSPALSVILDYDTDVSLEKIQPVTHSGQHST
row,SMILES,EC50 [nM]
1,C=CCN1CCc2c(cc(O)c(O)c2Cl)C(c2ccc(O)cc2)C1.CS(=O)(=O)O (stereo unspecified),15
2,C=CCN1CCc2c(cc(O)c(O)c2C)C(c2ccc(O)cc2)C1.Cl (stereo unspecified),400
3,C=CCN1CCc2c(cc(O)c(O)c2F)C(c2ccc(O)cc2)C1.CS(=O)(=O)O (stereo unspecified),100
4,Br.C=CCN1CCc2cc(O)c(O)cc2C(c2ccc(O)cc2)C1 (stereo unspecified),400
5,C=CCN1CCc2c(cc(O)c(O)c2Br)C(c2ccc(O)cc2)C1.CS(=O)(=O)O (stereo unspecified),50

# Target: T1, D(2) dopamine receptor (Homo sapiens, UniProt P14416)
# T1 sequence (P14416 whole entry, the tested form may be a part): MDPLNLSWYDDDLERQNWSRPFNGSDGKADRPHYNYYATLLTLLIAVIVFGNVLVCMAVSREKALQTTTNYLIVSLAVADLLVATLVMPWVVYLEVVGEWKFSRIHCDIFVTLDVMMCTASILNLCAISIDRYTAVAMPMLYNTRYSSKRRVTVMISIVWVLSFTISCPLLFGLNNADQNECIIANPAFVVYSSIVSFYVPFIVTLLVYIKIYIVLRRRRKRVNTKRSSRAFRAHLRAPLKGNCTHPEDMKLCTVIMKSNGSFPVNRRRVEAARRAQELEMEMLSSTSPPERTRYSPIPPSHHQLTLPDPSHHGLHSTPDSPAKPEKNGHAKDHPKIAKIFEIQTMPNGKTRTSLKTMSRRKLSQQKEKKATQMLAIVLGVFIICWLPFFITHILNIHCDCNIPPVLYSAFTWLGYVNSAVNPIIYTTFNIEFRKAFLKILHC
# Test: Dopamine receptor D2 agonist activity was determined for inhibition of the constrictor response to electrical stimulation in an isolated perfused rabbit ear artery preparation
# Type: functional, Oryctolagus cuniculus
# Settings: target entry is the homologue from another species
row,SMILES,EC50 [nM]
1,C=CCN1CCc2c(cc(O)c(O)c2C)C(c2ccc(O)cc2)C1.Cl (stereo unspecified),> 10000
2,C=CCN1CCc2c(cc(O)c(O)c2F)C(c2ccc(O)cc2)C1.CS(=O)(=O)O (stereo unspecified),137
3,Br.C=CCN1CCc2cc(O)c(O)cc2C(c2ccc(O)cc2)C1 (stereo unspecified),253
4,C=CCN1CCc2c(cc(O)c(O)c2Br)C(c2ccc(O)cc2)C1.CS(=O)(=O)O (stereo unspecified),174

# Target: T1, D(2) dopamine receptor
# Test: Dopamine receptor D2 agonist activity was determined for inhibition of release of NE in an isolated perfused rabbit ear artery preparation
# Settings: not given
row,SMILES,EC50 [nM]
1,C=CCN1CCc2c(cc(O)c(O)c2Cl)C(c2ccc(O)cc2)C1.CS(=O)(=O)O (stereo unspecified),122

# Species: Rattus norvegicus
# Test: Maximum response of adenylate cyclase to that of maximum response caused by dopamine was measured
# Type: functional
# Parameters: unit not given here
# Settings: not given
row,SMILES,Max response
1,C=CCN1CCc2c(cc(O)c(O)c2Cl)C(c2ccc(O)cc2)C1.CS(=O)(=O)O (stereo unspecified),80
2,C=CCN1CCc2c(cc(O)c(O)c2C)C(c2ccc(O)cc2)C1.Cl (stereo unspecified),69
3,C=CCN1CCc2c(cc(O)c(O)c2F)C(c2ccc(O)cc2)C1.CS(=O)(=O)O (stereo unspecified),89
4,C=CCN1CCc2cc(O)c(O)cc2C(c2ccccc2)C1.Cl (stereo unspecified),45
5,Br.C=CCN1CCc2cc(O)c(O)cc2C(c2ccc(O)cc2)C1 (stereo unspecified),35
6,C=CCN1CCc2c(cc(O)c(O)c2Br)C(c2ccc(O)cc2)C1.CS(=O)(=O)O (stereo unspecified),78
